The nature of the series: log P by HPLC (EEC Directive 79/831 Annex V.A8). Format: physicochemical.
Setting [1] is: [b] LC-MS, acidic range, pH 2.7, 0.1% aqueous formic acid and acetonitrile.
Setting [2] is: [c] LC-MS, neutral range, pH 7.8, 0.001 molar aqueous ammonium hydrogencarbonate and acetonitrile.
Setting [3] is: HPLC (LC-MS), [b] LC-MS, acidic range, pH 2.7, 0.1% aqueous formic acid and acetonitrile, read-out: log P.
[4] abbreviates: HPLC, pH 2.7, given in the preparation examples, read-out: logP (pH2.7).
[5] abbreviates: [a] HPLC, acidic range, pH 2.3, 0.1% aqueous phosphoric acid and acetonitrile.

The structures appear in SMILES notation. Like-named read-outs stand apart in the source and are kept apart here. Marks after values point to notes of the source that are not given here.

Regarding `O=C(Cn1nc(C(F)F)cc1C(F)F)N1CCC(c2cccc(C(=O)N3CCOc4ccccc43)n2)CC1` [Example 81], the log P (usually the decadic logarithm of the partition coefficient of the neutral form, usually between octanol and water) reads like this: under setting [1], 2.98; under setting [2], 2.97.

As to `CC(NC(=O)c1cccc(C2CCN(C(=O)Cn3nc(C(F)F)cc3C(F)F)CC2)n1)c1ccccc1Cl` (centres unmarked) [Example 82], the “log P” value under setting [1] is 3.53 and the log partition coefficient (log P) under setting [2] worked out at 3.61.

With `CCCCCC(C)NC(=O)c1cccc(C2CCN(C(=O)Cn3nc(C(F)F)cc3C(F)F)CC2)n1` (centres unmarked) [Example 83], the “log P” value is on record as 3.99 under setting [1] and 3.95 under setting [2].

Consider `O=C(NC1CCc2ccccc21)c1cccc(C2CCN(C(=O)Cn3nc(C(F)F)cc3C(F)F)CC2)n1` (centres unmarked) [Example 84], for which the “log P” value was found to be 3.4 under setting [1] and 3.44 under setting [2].

`CCCCCCCNC(=O)c1cccc(C2CCN(C(=O)Cn3nc(C(F)F)cc3C(F)F)CC2)n1` [Example 85]: the “log P” value by setting is: under setting [1], 3.96; under setting [2], 4.05.

As for `O=C(NCc1ccc(Cl)cc1Cl)c1cccc(C2CCN(C(=O)Cn3nc(C(F)F)cc3C(F)F)CC2)n1` [Example 86], the “log P” value is, setting by setting: under setting [1], 3.86^[b]; 3.86^[c]; under setting [2], 3.86^[b]; 3.86^[c].

Consider `O=C(NCc1ccc(F)cc1F)c1cccc(C2CCN(C(=O)Cn3nc(C(F)F)cc3C(F)F)CC2)n1` [Example 87], for which the “log P” value came out at 3.22 under setting [1] and 3.24 under setting [2].

For the molecule `O=C(NCc1ccccc1Cl)c1cccc(C2CCN(C(=O)Cn3nc(C(F)F)cc3C(F)F)CC2)n1` [Example 88], the “log P” value is, setting by setting: under setting [1], 3.35; under setting [2], 3.39.

Turning to `O=C(NCc1c(F)cccc1F)c1cccc(C2CCN(C(=O)Cn3nc(C(F)F)cc3C(F)F)CC2)n1` [Example 89], the “log P” value is, setting by setting: under setting [1], 3.11; under setting [2], 3.14.

With `O=C(NCc1ccccn1)c1cccc(C2CCN(C(=O)Cn3nc(C(F)F)cc3C(F)F)CC2)n1` [Example 90], the “log P” value stood at 1.83 under setting [1] and 2.37 under setting [2].

Take `O=C(NCc1cccs1)c1cccc(C2CCN(C(=O)Cn3nc(C(F)F)cc3C(F)F)CC2)n1` [Example 91]: the “log P” value is, setting by setting: under setting [1], 2.98; under setting [2], 2.97.

With `Cc1ccsc1CNC(=O)c1cccc(C2CCN(C(=O)Cn3nc(C(F)F)cc3C(F)F)CC2)n1` [Example 92], the “log P” value was found to be 3.19 under setting [1] and 3.18 under setting [2].

With `COC1CCCCC1OC(=O)c1cccc(C2CCN(C(=O)Cn3nc(C(F)F)cc3C(F)F)CC2)n1` (centres unmarked) [Example 97], the “log P” value under setting [1] is 4.17^[b].

In the case of `O=C(OC1C=CCCC1)c1cccc(C2CCN(C(=O)Cn3nc(C(F)F)cc3C(F)F)CC2)n1` (centres unmarked) [Example 98], the “log P” value under setting [1] was 3.87^[b].

On to `O=C(OC1CCCCC1)c1cccc(C2CCN(C(=O)Cn3nc(C(F)F)cc3C(F)F)CC2)n1` [Example 99, Cyclohexyl 6-(1-{[3,5-bis(difluoromethyl)-1H-pyrazol-1-yl]acetyl}piperidin-4-yl)-pyridine-2-carboxylate], for which the chromatographic logP amounted to 3.83 under setting [3] and 3.83 under setting [4].

On to `O=C(OC1CCCc2ccccc21)c1cccc(C2CCN(C(=O)Cn3nc(C(F)F)cc3C(F)F)CC2)n1` (centres unmarked) [Example 100], for which the log partition coefficient (log P) under setting [1] is 4.07^[b].

For the molecule `C=CCCCCOC(=O)c1cccc(C2CCN(C(=O)Cn3nc(C(F)F)cc3C(F)F)CC2)n1` [Example 101], under setting [1], the log partition coefficient (log P) is 3.8^[b].

Regarding `CCCCCCCOC(=O)c1cccc(C2CCN(C(=O)Cn3nc(C(F)F)cc3C(F)F)CC2)n1` [Example 102], the “log P” value under setting [1] is 4.59^[b].

`O=C(OCc1ccc(F)cc1F)c1cccc(C2CCN(C(=O)Cn3nc(C(F)F)cc3C(F)F)CC2)n1` [Example 103]: the “log P” value under setting [1] is 3.54^[b].

Turning to `O=C(OCc1c(F)cc(F)cc1F)c1cccc(C2CCN(C(=O)Cn3nc(C(F)F)cc3C(F)F)CC2)n1` [Example 104], under setting [1], the “log P” value was 3.57^[b].

Regarding `O=C(OCc1ccccc1Cl)c1cccc(C2CCN(C(=O)Cn3nc(C(F)F)cc3C(F)F)CC2)n1` [Example 105], the “log P” value under setting [1] was 3.77^[b].

`O=C(OCc1ccccc1F)c1cccc(C2CCN(C(=O)Cn3nc(C(F)F)cc3C(F)F)CC2)n1` [Example 106]: the “log P” value under setting [1] was 3.45^[b].

With `O=C(OCc1c(F)cccc1F)c1cccc(C2CCN(C(=O)Cn3nc(C(F)F)cc3C(F)F)CC2)n1` [Example 107], under setting [1], the “log P” value was 3.44^[b].

As for `Cc1cccnc1COC(=O)c1cccc(C2CCN(C(=O)Cn3nc(C(F)F)cc3C(F)F)CC2)n1` [Example 108], under setting [1], the “log P” value was 2.14^[b].

With `Cc1csc(COC(=O)c2cccc(C3CCN(C(=O)Cn4nc(C(F)F)cc4C(F)F)CC3)n2)c1` [Example 109], the “log P” value under setting [1] was 3.6^[b].

On to `O=C(Oc1cccc2ccccc12)c1cccc(C2CCN(C(=O)Cn3nc(C(F)F)cc3C(F)F)CC2)n1` [Example 110], for which the “log P” value under setting [1] was 3.82^[b].

As for `O=C(Oc1ccc2ccccc2c1)c1cccc(C2CCN(C(=O)Cn3nc(C(F)F)cc3C(F)F)CC2)n1` [Example 111], the “log P” value under setting [1] was 3.86^[b].

Consider `O=C(SC1CCCCC1)c1cccc(C2CCN(C(=O)Cn3nc(C(F)F)cc3C(F)F)CC2)n1` [Example 112], for which the “log P” value by setting is: under setting [5], 4.63; under setting [2], 4.65.

Take `O=C(SCc1c(F)cccc1F)c1cccc(C2CCN(C(=O)Cn3nc(C(F)F)cc3C(F)F)CC2)n1` [Example 113]: the “log P” value worked out at 4.12 under setting [5] and 4.13 under setting [2].

As for `O=C(Sc1cccc2ccccc12)c1cccc(C2CCN(C(=O)Cn3nc(C(F)F)cc3C(F)F)CC2)n1` [Example 114], the “log P” value runs as follows: under setting [5], 4.4; under setting [2], 4.42.

As to `O=C(OC1CCCCC1F)c1cccc(C2CCN(C(=O)Cn3nc(C(F)F)cc3C(F)F)CC2)n1` (centres unmarked) [Example 115], under setting [1], the “log P” value was 3.37^[b].

With `Cc1cc(C(F)(F)F)nn1CC(=O)N1CCC(c2cccc(C(=O)OC3CCCCC3F)n2)CC1` (centres unmarked) [Example 116], under setting [1], the “log P” value is 3.43^[b].

For `O=C(OC1CCCCC1)c1cccc(N2CCN(C(=O)Cn3nc(C(F)F)cc3C(F)F)CC2)n1` [Example 119], the “log P” value is 4.61 under setting [5] and 4.65 under setting [2].

`O=C(Sc1ccccc1)c1cccc(C2CCN(C(=O)Cn3nc(C(F)F)cc3C(F)F)CC2)n1` [Example 121]: the “log P” value under setting [5] is 3.8 and the lipophilicity (log P) under setting [2] came to 3.85.

Turning to `O=C(Sc1ccccc1)c1cccc(N2CCN(C(=O)Cn3nc(C(F)F)cc3C(F)F)CC2)n1` [Example 122], the “log P” value under setting [5] is listed as 3.79 and the “log P” value under setting [2] is reported as 3.81.

On to `O=C(Sc1cccs1)c1cccc(N2CCN(C(=O)Cn3nc(C(F)F)cc3C(F)F)CC2)n1` [Example 124], for which the “log P” value under setting [5] amounted to 3.73 and the “log P” value under setting [2] was determined as 3.75.

Turning to `O=C(SCc1c(F)cccc1F)c1cccc(N2CCN(C(=O)Cn3nc(C(F)F)cc3C(F)F)CC2)n1` [Example 125], the “log P” value is, setting by setting: under setting [5], 4.11; under setting [2], 4.14.

Consider `O=C(SCc1ccccc1Cl)c1cccc(C2CCN(C(=O)Cn3nc(C(F)F)cc3C(F)F)CC2)n1` [Example 126], for which the “log P” value under setting [5] turned out to be 4.44 and the “log P” value under setting [2] worked out at 4.49.

`O=C(SCc1ccccc1Cl)c1cccc(N2CCN(C(=O)Cn3nc(C(F)F)cc3C(F)F)CC2)n1` [Example 127]: the “log P” value by setting is: under setting [5], 4.42; under setting [2], 4.44.

As for `O=C(SCc1ccc(F)cc1)c1cccc(C2CCN(C(=O)Cn3nc(C(F)F)cc3C(F)F)CC2)n1` [Example 128], the “log P” value by setting is: under setting [5], 4.1; under setting [2], 4.15.

With `CCCCCCCSC(=O)c1cccc(C2CCN(C(=O)Cn3nc(C(F)F)cc3C(F)F)CC2)n1` [Example 129], the “log P” value reads like this: under setting [5], 5.43; under setting [2], 5.44.

On to `CCCCCCCSC(=O)c1cccc(N2CCN(C(=O)Cn3nc(C(F)F)cc3C(F)F)CC2)n1` [Example 130], for which the log partition coefficient (log P) under setting [5] was 5.4 and the “log P” value under setting [2] stood at 5.38.

`CCOC(=O)c1cccc(C2CCN(C(=O)Cn3nc(C(F)F)cc3C(F)F)CC2)n1` [Example 131, Ethyl 6-(1-{[3,5-bis(difluoromethyl)-1H-pyrazol-1-yl]acetyl}piperidin-4-yl)pyridine-2-carboxylate]: the chromatographic logP is, setting by setting: under setting [3], 2.68; under setting [4], 2.68.

For the molecule `CCOC(=O)c1cccc(C2CCN(C(=O)Cn3nc(C(F)(F)F)cc3C)CC2)n1` [Example 132], under setting [1], the “log P” value was 2.73^[b].

Regarding `Cc1ccccc1CSC(=O)c1cccc(C2CCN(C(=O)Cn3nc(C(F)F)cc3C(F)F)CC2)n1` [Example 133], the “log P” value reads like this: under setting [5], 4.39; under setting [2], 4.41.

Regarding `CCOC(=O)c1cccc(C2CCN(C(=O)Cn3nc(C(F)(F)F)cc3C)CC2)n1` [Example 134], the “log P” value under setting [1] is 2.74^[b].

Regarding `O=C(O)c1cccc(C2CCN(C(=O)Cn3nc(C(F)F)cc3C(F)F)CC2)n1` [Example 135, 6-(1-{[3,5-Bis(difluoromethyl)-1H-pyrazol-1-yl]acetyl}piperidin-4-yl)pyridine-2-carboxylic acid], the chromatographic logP was found to be 1.55 under setting [3] and 1.55 under setting [4].

`O=C(Oc1cccc2c1CCCC2)c1cccc(N2CCN(C(=O)Cn3nc(C(F)F)cc3C(F)F)CC2)n1` [Example 139]: the log partition coefficient (log P) runs as follows: under setting [5], 4.25; under setting [2], 4.29.

As for `O=C(NCc1ccc(Cl)cc1Cl)c1cccc(N2CCN(C(=O)Cn3nc(C(F)F)cc3C(F)F)CC2)n1` [Example 144], the “log P” value reads like this: under setting [5], 3.68; under setting [2], 3.7.

As for `Cc1ccccc1CSC(=O)c1cccc(N2CCN(C(=O)Cn3nc(C(F)(F)F)cc3C)CC2)n1` [Example 145], the “log P” value under setting [1] is listed as 4.52 and the “log P” value under setting [2] was 4.55.

On to `O=C(NCc1ccccc1Cl)c1cccc(N2CCN(C(=O)Cn3nc(C(F)F)cc3C(F)F)CC2)n1` [Example 146], for which the “log P” value is, setting by setting: under setting [5], 3.24; under setting [2], 3.26.

Regarding `Cc1cc(C(F)(F)F)nn1CC(=O)N1CCN(c2cccc(C(=O)N(C)C3CCCc4ccccc43)n2)CC1` (centres unmarked) [Example 147], the “log P” value by setting is: under setting [1], 3.55; under setting [2], 3.59.

These data come from patent US8604040B2 (priority 2010, dated 2013).
